A short description of experiment [1]: Antiinflammatory activity in human neutrophils assessed as inhibition of fMLP/CB-induced superoxide anion generation after 5 mins. In kind it is functional, cell-based. Particulars: Neutrophil.
Experiment [2] can be described thus: Antiinflammatory activity in human neutrophils assessed as inhibition of fMLP/CB-induced elastase release after 5 mins. In kind it is functional, cell-based. The settings on record: Neutrophil.
Experiment [3] has as its system Neutrophil. The experiment in a line: Ratio of Genistein IC50 to compound IC50 for inhibition of fMLP/CB-induced superoxide anion generation in human neutrophils. In kind it is functional.
The subject of experiment [4] is Neutrophil. As to the kind of experiment: Ratio of Genistein IC50 to compound IC50 for inhibition of fMLP/CB-induced elastase release in human neutrophils. It counts as functional.

≈ marks a conversion by molar mass, not a printed value. Some results are limits rather than exact numbers.

By IC50 is commonly meant the concentration needed to halve the response being measured.

Regarding `COC(=O)c1cc2c(c3c1ccc1c(OC)cccc13)OCO2` [METHYL ARISTOLATE], the 50% inhibitory concentration (IC50) in experiment [1] and in experiment [2] was over 10 µg/mL each time.

As for `COC(=O)c1cc2c(c3c1c([N+](=O)[O-])cc1c(OC)cccc13)OCO2`, the IC50 in experiment [1] and in experiment [2] was over 10 µg/mL in each case.

Take `COc1cc(O)cc2c1cc([N+](=O)[O-])c1c(C(=O)O)cc3c(c12)OCO3` [ARISTOLOCHIC D]: the results for the IC50 in experiment [1] and in experiment [2] were 5.78 µg/mL (≈ 16.2 µM) and 8.49 µg/mL (≈ 23.8 µM), respectively.

Consider `O=C1Nc2cc3ccc(O)cc3c3c4c(cc1c23)OCO4`, for which the 50% inhibitory concentration (IC50) is 0.12 µg/mL (≈ 0.43 µM) in experiment [1] and 0.2 µg/mL (≈ 0.716 µM) in experiment [2]. In addition, the “Ratio IC50” value in the experiment with Neutrophil [3] came out at 4.5; in the experiment with Neutrophil [4], 35.

On to `COc1cccc2c1ccc1c(C(N)=O)cc3c(c12)OCO3` [ARISTOLAMIDE], for which the IC50 in experiment [1] and in experiment [2] was over 10 µg/mL in each case.

On to `O=C(O)c1cc2c(c3c1c([N+](=O)[O-])cc1ccc(O)cc13)OCO2` [ARISTOLOCHIC ACID C], for which the IC50 in experiment [1] and in experiment [2] was over 10 µg/mL in each case.

In the case of `NC(=O)c1cc2c(c3c1ccc1ccccc13)OCO2` [ARISTOLAMIDE II], the figures for the IC50 in experiment [1] and in experiment [2] were over 10 µg/mL and 4.11 µg/mL (≈ 15.5 µM), respectively.

Take `COC(=O)c1cc2c(c3c1ccc1c(OC)cc(OC)cc13)OCO2` [ARISTOLIC ACID METHYL ESTER]: the IC50 in experiment [1] and in experiment [2] was over 10 µg/mL throughout.

Consider `O=c1c(-c2ccc(O)cc2)coc2cc(O)cc(O)c12` [GENISTEIN], for which the IC50 was 0.54 µg/mL (≈ 2 µM) in experiment [1] and 6.99 µg/mL (≈ 25.9 µM) in experiment [2].

As for `COc1cccc2c1cc([N+](=O)[O-])c1c(C(=O)O)cc3c(c12)OCO3` [ARISTOLOCHIC ACID], the IC50 in experiment [1] and in experiment [2] was over 10 µg/mL in each case.

The record behind these values is ChEMBL document CHEMBL1681782, “A novel alkaloid, aristopyridinone A and anti-inflammatory phenanthrenes isolated from Aristolochia manshuriensis” (Bioorg Med Chem Lett, 2011).
